Measured values reported in US20180265867A1, “NUCLEIC ACID MOLECULES WITH ENHANCED ACTIVITY” (priority 2015, published 2018).
d = 2'-deoxy (DNA); r = 2'-OH (RNA)

Key:
Type in all cases: cell-based, human
[1] = test system: GAPDH; assay: Western blot of GAPDH protein in MG63 cells; settings: MG63, 50 nM, at 48 h, no transfection reagent
Protocol: (§1) After 48 hours of transfection, cells were washed twice with ice-cold PBS and lysed in RIPA lysis buffer (50 mM Tris-HCl, pH 8.0, with 150 mM NaCl, 1.0% Igepal CA-630 (NP-40), 0.5% sodiumdeoxycholate, 0.1% SDS, and 1.0% protease inhibitor cocktail from SIGMA-ALDRICH®). Lysates were incubated on ice for 30 minutes and centrifuged at 10,000 rpm for 20 minutes to collect supernatant. Coomassie Plus—The Better Bradford Assay™ Reagent (Thermo Scientific) was used to measure protein concentrations. Thereafter, 20 μg of soluble protein was separated by SDS-PAGE and transferred to polyvinylidene difluoride membrane (Millipore). Primary antibodies against GAPDH (1:1000 dilution), β-catenin (1:1000 dilution; SIGMA-ALDRICH®), β-actin (1:1000; Cell Signaling Technology®) were used to probe the protein bands. Anti-Rabbit-HRP conjugated secondary antibodies (1:3000 dilution; R&D Systems®) were used to detect the primary antibodies, followed by the target protein visualization with EMD Millipore Immobilon™ Western Chemiluminescent HRP Substrate (ECL). […]
(§2) To further validate our results, we tested the gene knockdown efficiency of another gene CTNNB1 (β-catenin), which is expressed in MG63 cells. We performed a time course experiment (24, 48 and 72 h) by targeting CTNNB1 and GAPDH in MG63 cells and quantified the mRNA and protein levels using qRT-PCR and Western blot experiments respectively (FIG. 8).

[2] = test system: β-catenin; assay: Western blot of β-catenin protein in MG63 cells; settings: MG63, 50 nM, at 48 h, β-catenin cpRNA, no transfection reagent
Protocol: as §1, §2

[3] = test system: IFN-α, IFN-β, IFN-γ; assay: Interferon assay (IFN-α, β, γ mRNA by RT-PCR) in MG63 cells; settings: 50 or 100 nM, 24 h, compared to cell-alone control or scrambled sequence
Protocol: cDNA synthesis was performed in triplicate using total RNA reverse transcribed using High Capacity cDNA reverse transcription kit (Applied Biosystems, USA), with non-template control added to ensure a lack of signal in assay background. Reactions were incubated on a 96-well Applied Biosystems 9800 Fast Thermal Cycler PCR System at 37° C. for 60 min followed by 95° C. for 5 min. The real-time PCR reactions were carried out with 10 μl of 2×TaqMan® Universal PCR Master Mix, no AmpErase® UNG (Applied Biosystems, USA), 9 μl diluted cDNA, and 1 μl of TaqMan gene specific assay mix in a 20 μl final reaction volume. Reference gene beta-actin (ACTB) (Applied Biosystems, USA) was selected as control for normalization of TaqMan data. […] Data from samples with a Ct value equal to or below 35 were further analyzed. Samples were normalized relative to endogenous control and differences in cycle number thresholds were calculated using comparative quantitation 2^−ΔΔcT method (also called the ΔΔCT method), commonly used for analyzing siRNA induced gene knockdown efficiency. […]
Thus, because cellular stress mainly originates from maturation of the RNA-TLR complex in the endosome or activation of RIG-1 in the cytoplasm, we investigated immune activation and IFN response using cpRNA and a scrambled sequence. The levels of Type-I (IFN-α and β) and Type-II (IFN-γ) IFN were tested via quantitative RT-PCR. […]

## dT5: GAPDH siRNA, sense SEQ ID NO: 3 with dT5 3′-overhang, antisense SEQ ID NO: 2 with dT2 (sense CCGAGCCACAUCGCUCAGATTTTT; antisense UCUGAGCGAUGUGGCUCGGTT; sense: sugars from the 5' end r19 d5, backbone not given here; antisense: sugars from the 5' end r19 d2, backbone not given here)
[1]
  GAPDH protein level: complete knockout
[2]
  CTNNB1 protein level: complete knockout
[3]
  IFN response / immune activation (IFN-α, β, γ mRNA): no significant IFN response
